Data on three compounds can be found in patent US7632859B2, “Iontophoretic delivery of rotigotine for the treatment of Parkinson's disease” (Schwarz Pharma AG, priority 2002, dated 2009).

Data set [1] can be described thus: Solubility of rotigotine in the donor phase. The format is physicochemical. The text has this: To provide for an optimal flux across human stratum corneum it was also necessary to provide for a sufficient concentration of Cl^− ions for the electrode reaction in the donor phase.
The nature of data set [2]: In vitro iontophoretic flux of rotigotine, three-chamber flow-through diffusion cells. Format: in vitro ADME, human. As to conditions: donor pH 5, 500 μA/cm^2, 20° C. How it is done:
In vitro iontophoretic studies for the administration of rotigotine were carried out with three-chamber flow-through diffusion cells as described by […] al. ([…]. Boddé, “Validation and testing of a new iontophoretic continuous flow through transport cell”, J. Control. Release (1998), 51, […]). On both sides of the acceptor compartment human stratum corneum (SC) was situated. A dialysis membrane having a 5.000 Da cut-off was used as supporting membrane. The volume of the outer chambers was approximately 2 ml, while the volume of the acceptor compartment was 0.54 ml. The two outer chambers contained the silver plate (anode) or silver/silver chloride (cathode) driver […]. The donor phase consisted of rotigotine solution buffered with 5 mM citrate buffer (2.1 mM sodium citrate dihydrate and 2.9 mM citric acid). Using this set-up, a pH in the donor chamber of 5, a current density of 500 μA/cm^2, a pH in the acceptor chamber of 7.4, a temperature of 20° C. and an NaCl concentration in the donor chamber of 70 mmol/l, the flux of rotigotine was measured for different drug concentrations in the donor phase. Using a similar procedure as in Example 1 and a concentration of rotigotine of 1.4 mg/ml (3.98 mM), a pH in the donor chamber of 5, a current density of 500 μA/cm^2, a pH in the acceptor chamber of 7.4 and a temperature of 20° C., but substituting triethylammonium chloride (TEACl) or tributylammonium chloride (TBACl) for NaCl, the influence of the different cations on the flux was evaluated. The concentration of the chloride salts in the donor solution was 70 mmol/l. Using a similar procedure and the same parameters as in Example 2, the influence of reducing the pH in the acceptor chamber from 7.4 to 6.2 was evaluated for different chloride salts. The concentration of the chloride salts in the donor solution was 70 mmol/l.

For data set [3] the following is noted: relative to therapeutic concentration range of 1.4 to 10.7 ng/ml; cited from earlier work.
For data set [4] the following is noted: relative to therapeutic range; cited from earlier work.

On to `CCCN(CCc1cccs1)[C@H]1CCc2c(O)cccc2C1` [Rotigotine, (−)-5,6,7,8-tetrahydro-6-[propyl-[2-(2-thienyl)ethyl]-amino]-1-naphthalenol], for which the solubility of rotigotine entry in data set [1] (effect of addition of chloride salts) was “reduces the solubility”; in data set [1] (effect of increasing pH) it was “decreases when the pH is increased”. Moreover, the “Flux Rotigotine” value is given as 53.2 nmol/cm^2/h in data set [2] (co-ions source NaCl 70 mmol/l, rotigotine 1.4 mg/ml (3.98 mM), acceptor pH 7.4); 58.9 nmol/cm^2/h in data set [2] (co-ions source NaCl 70 mmol/l, rotigotine 1.4 mg/ml, acceptor pH 6.2); 62.0 nmol/cm^2/h in data set [2] (co-ions source TBACl 70 mmol/l, rotigotine 1.4 mg/ml (3.98 mM), acceptor pH 7.4); 76.5 nmol/cm^2/h in data set [2] (co-ions source TBACl 70 mmol/l, rotigotine 1.4 mg/ml, acceptor pH 6.2); 72.8 nmol/cm^2/h in data set [2] (co-ions source TEACl 70 mmol/l, rotigotine 1.4 mg/ml (3.98 mM), acceptor pH 7.4); 43.2 nmol/cm^2/h in data set [2] (co-ions source TEACl 70 mmol/l, rotigotine 1.4 mg/ml, acceptor pH 6.2). Also, the “Flux Rotigotine” value is 22.9 nmol/cm^2/h in data set [2] (rotigotine donor conc. 0.5 mg/ml (1.4 mM), NaCl 70 mmol/l, acceptor pH 7.4); 30.2 nmol/cm^2/h in data set [2] (rotigotine donor conc. 1.0 mg/ml (2.8 mM), NaCl 70 mmol/l, acceptor pH 7.4); 53.2 nmol/cm^2/h in data set [2] (rotigotine donor conc. 1.4 mg/ml (3.98 mM), NaCl 70 mmol/l, acceptor pH 7.4).

In the case of `CN1CCc2cccc3c2[C@H]1Cc1ccc(O)c(O)c1-3` [R-apomorphine, (R)-5,6,6a,7-tetrahydro-6-methyl-4H-dibenzoquinoline-11,12-diol], in data set [3], the “concentrations obtained by iontophoretic administration” value is on record as “lower end of the therapeutic concentration range”.

For `CCCN(CCC)CCc1cccc2c1CC(=O)N2` [ropinirole], the “fluxes obtained by iontophoretic administration” value in data set [4] is given as “lower end of the therapeutic range”.
